Assay results reported in US7795208B2, “Methods of using deacetylase inhibitors to promote cell differentiation and regeneration” (The Salk Institute for Biological Study, priority 2001, dated 2010).
Several values for one entry are separate records, joined by “and”; a condition that tells them apart may be missing. Equal values may be shown once.

Assays:
[1] = test system: C2C12 cells; assay: Differentiation and muscle protein expression of C2C12 myoblasts exposed to deacetylase inhibitors (MHC immunofluorescence, Western blot, RT-PCR, FACS); assay type: cell-based, mouse; conditions: for Nuclei/MHC-Positive Cells (number of nuclei) / percentage of nuclei detected in MHC-positive cells: C2C12, DI 24 hours in GM, then DM without DI, Tr. 1 and Tr. 2; for MHC expression and frequency of MHC-positive multinucleated cells: undifferentiated myoblasts exposed in GM, differentiated in the absence of DI, vs untreated cells
Description: Mouse muscle myoblast C2C12 cells (obtained from the American Type Culture Collection, ATCC CRL-1772) and CC42 cells (from Dr. Kenneth Walsh, Tufts University School of Medicine) were cultured in DMEM supplemented with 20% fetal bovine serum, 2 mM glutamine and 1× kanamycin (growth medium, GM). Cellular differentiation was induced with DMEM supplemented with 2% horse serum and 1× insulin, transferring, selenium (Life Technologies). Human skeletal myocytes (CC-2561) were purchased from Clonetics. Stable C2C12 cell lines with integrated reporters are described in Wu, Z., et al., Mol Cell Biol 20:3951-64 (2000). The MCK-luc, 4RE-luc, MEF2 reporter constructs have been described in Puri, P. L., et al., EMBO Journal 16:369-83 (1997a) and Sartorelli, V., et al., Molecular & Cellular Biology 17:1010-26 (1997). The E2F-luc plasmid is described in Helin, K., et al., Genes Dev 7:1850-61 (1993). The MLC-lacZ-nls plasmid is described in Wu, et al. (2000). Dr. Stuart Schreiber (Harvard University) provided the vector expressing Flag-HDAC1, which is described in Taunton, J., et al., Science 272: 408-11 (1996). Transient transfections were performed using FuGENE 6 transfection reagent (Roche Molecular Biochemicals). Following transfections, luciferase activity was determined using the Dual-Luciferase reporter assay system (Promega) on a microtiter luminescence detection system (MLX, Dynex).
For immunoblotting, cell extracts were obtained after incubating the cells in standard lysis buffer. Western blots were probed with the following antibodies: anti-MHC (MF-20), anti-myogenin (FD5), and anti-tubulin (E7), obtained from the Developmental Studies Hybridoma Bank, University of Iowa. Primary antibodies were visualized with the ECL cheminoluminescent kit (Amersham). Cells were fixed and stained with anti-MHC MF-20 antibodies. Nuclei were visualized by 4′,6′-[…]-2-phenylindole (DAPI). FITC-conjugated or Texas red-conjugated secondary antibodies were employed to reveal the primary antibodies.
C2C12 and CC42 cells were exposed to sodium butyrate 5 mM (Sigma), trichostatin A 50 nM (Upstate Biotechnologies), or valproic acid 10 mM (Sigma) for 24 hours in GM (GM regimen). TSA was removed and the cells cultured in DM for 48 hrs before being analyzed. When indicated (DM regimen), the cells were exposed to deacetylase inhibitors when switched from GM to DM and cultured in their presence for 48 hrs.
Another striking effect induced by DI is their ability to increase the number of nuclei present in MHC positive cells. While approximately 15% of the total nuclei are present in elongated, MHC-positive myotubes not exposed to DI, approximately 75-80% of the total nuclei are detected in hypernucleated MHC-positive myotubes when these have been previously exposed to DI (see FIG. 1D and Table 1). In Table 1, C2C12 cells were either exposed to sodium butyrate, TSA, VPA or left untreated for 24 hours in GM. The medium was replaced with DM without DI, and MHC expression was detected by immunofluorescent staining. Nuclei were visualized with DAPI. The values in parenthesis indicate the percentage of nuclei detected in MHC-positive cells. The values are derived from two independent trials.

[2] = test system: MLC3F-lacZ-nls construct; assay: β-Galactosidase assay of cells transfected with MLC3F-lacZ-nls; assay type: cell-based, mouse; conditions: transfected cells exposed in GM, then DM 48 hours; vs non-treated cells
Description: FIGS. 4A-C illustrate that embryos exposed to DI display enhanced somitogenesis and increased muscle gene expression. […] Cells were then exposed to TSA (50 nM) in GM and subsequently switched to DM for 48 hours. Cells were stained to detect β-galactosidase activity. FIG. 4B is a picture of E 10.5 embryos derived from MLC1/3F-nLacZ transgenic mice exposed to either TSA or VPA treatment (see Example 1) and stained for 1 hour at 30° C. to detect β-galactosidase activity. […] FIG. 4C is a Western blot of extracts derived from total embryos exposed to either TSA or VPA; MHC is detected.
Cells transfected with MLC-lacZ-nls were washed twice in PBS, fixed in 4% paraformaldeheyde-PBS for 5 min, washed twice in PBS, and stained for 2-5 hrs with 5 mM potassium ferrycyanide, 5 mM potassium ferrocyanide, 2 mM MgCl2, 1 mg/ml X-gal (5-bromo-4-chloro-3-indolyl-β-D-galactoside).

[3] = test system: mouse embryos; assay: Embryos of pregnant MLC1/3F-nLacZ mice exposed in utero (somitogenesis, muscle gene expression); assay type: in vivo
Description: MLC1/3F-nLacZ pregnant mice (E 8.5) received intra peritoneal injection of 15 μg of TSA (WAKO chemicals, Neuss Germany) or VPA (Sigma) at E 8.5 and E 9.5 as described in Faiella, A., et al., Hum Mol Genet 9:227-36 (2000), and Nervi, C., et al., Cancer Res 61:1247-9 (2001). VPA was dissolved in distilled water and administered at doses of 6 mg/mice (about 150 μg/ml) every 12 h at E 8.5, E 9, E 9.5, E 10 as described in Faiella et al. (2000). […] Mice were sacrificed at E 10.5, and the embryos were observed under a dissecting stereo-microscope to evaluate their viability, presence of external malformations, and number of somites. Embryos were fixed in 4% paraformaldehyde for histology and X-Gal staining or immunocytochemistry using antibodies against MyoD and myosin heavy chains as described in Tajbakhsh, S., et al., Neuron 13:813-21 (1994).
DI was administered intraperitoneally to pregnant mice (at a concentration of 0.5 to 1 mg/Kg for TSA and 200 mg/Kg for VPA) at post-implantation stages of E 8.5, and the pregnant mice were sacrificed at 10.5, when MyoD expression is clearly detectable in the myotomes. […] In Table 2, Somites of MLC1/3F-nLacZ mice (injected at day 8.5 and sacrificed at day 10.5) were scored after staining the embryos to detect β-galactosidase activity.

[4] = i.p. to pregnant mice at E 8.5, sacrificed at 10.5, 0.5 to 1 mg/Kg TSA, 200 mg/Kg VPA

Row | Compound | Nuclei/MHC-Positive Cells (number of nuclei) [1] | percentage of nuclei detected in MHC-positive cells [1] | expression of myogenin and MHC, differentiation ([1]; C2C12 treated when cultured in DM, 48 hours) | apoptosis (reduced cell density) ([1]; cells exposed in DM) | MHC expression and frequency of MHC-positive multinucleated cells [1] | β-galactosidase-positive nuclei [2] | level of MLC-lacZ transgene expression ([3]; E 10.5 embryos, vs control embryos) | # somites (β-galactosidase staining) ([3]; MLC1/3F-nLacZ mice injected at day 8.5, sacrificed at day 10.5, TSA [1 mg/ml] (20 ul + 380 ul PBS), VPA 155 mM, one value per embryo, PBS controls 25-32) | levels of MHC in exposed embryos (Western blot) ([3]; extracts of total embryos) | number of MLC expressing somites [3, 4] | number of MyoD expressing myotomes [3, 4]
1 | CCCC(=O)[O-].[Na+] [Sodium Butyrate, sodium butyrate] | 230 and 210 | 83% and 84% | failed to activate expression of both myogenin and the myosin heavy chain (MHC) and to properly differentiate | high frequency of apoptosis | upregulated MHC expression and displayed a striking increased frequency of larger MHC-positive multinucleated cells | – | – | – | – | – | –
2 | CCCC(CCC)C(=O)O [VPA, valproic acid] | 153 and 187 | 81% and 78% | – | – | effects undistinguishable from those exerted by sodium butyrate | increased β-galactosidase-positive nuclei | higher level of MLC-lacZ transgene expression | 35 and 36 and 33 and 34 | augmented the levels of MHC | consistently increased | consistently increased
